“And” between values parts separate entries of the source, which are not always exact repeats. Equal values may be shown once. “Also recorded” adds a separate entry of the source. Read-outs that look alike come from different tables or passages of the source.
Experiments:
[1] = Quartz crystal microbalance weight loss of amine-treated iron surface in unstirred 0.5 M sodium sulfate solution; conditions: for percent wt. loss: amine-treated iron surface, 6.5 hours in unstirred 0.5 M Na2SO4 (pH=5.8); for time when wt. loss commenced: unstirred 0.5 M Na2SO4 (pH=5.8), 6.5 hours
Protocol: Weightloss measurements were performed by immersing the amine-coated iron surface in 0.5 M sodium sulfate solution (pH=5.8), and comparing the results observed with those obtained in case of an unprotected iron surface. From the results achieved, the following four major conclusions follow:
Table I below correlates the pKa of an amine with the percentage weight loss observed (using the quartz crystal microbalance technique) when the amine-treated iron surface was immersed for 6.5 hours in 0.5 M Na2SO4 solution (pH=5.8). See pKa prediction of organic acids and bases, D. D. Perrin, B. Dempsey, E. P. Serjeant (1981), Chapman and Hall. Physical methods in Heterocyclic Chemistry Vol. 1, A. A. Katritzky (1963), Academic Press.

[2] = QCM weight loss of amine-treated iron deposit in "open" pH 2.6 sulfate solution
[3] = Quartz crystal microbalance weight loss of amine-treated iron surface in unstirred 0.5 M sodium sulfate solution; conditions: "open" pH 5.9 sulfate solution
[4] = cited from earlier work
[5] = QCM weight loss of DBU-treated iron deposit in Ar-purged pH 2.6 sulfate solution; conditions: no dissolved oxygen, pH 2.6 sodium sulfate solution
Protocol: This conclusion was arrived at by examining the effect of DBU on the corrosion of iron in Ar-purged (no dissolved oxygen) pH 2.6 (acidic) sodium sulfate solution using the QCM technique, and comparing the results obtained with those recorded in “open” (oxygen containing) pH 2.6 and 5.9 solutions.
The apparatus for the experiments performed under purged conditions (as illustrated in FIG. 6) consists of a 500 ml Pyrex reaction vessel with a 4-necked cover. The reaction vessel and the cover are retained intact together during the experiment with the aid of a horse-shoe clamp. The QCM is inserted through the central neck, after plating the iron deposit onto the crystal. A pH electrode is inserted through one of the necks, and an inlet for Ar gas through the other. The fourth neck is stoppered when not used. The pH 2.6 sulfate solution is purged with Ar gas for 1 hour before exposure of the iron deposit (protected/unprotected) to the environment. See D. D. Perrin, B. Dempsey, E. P. Serjeant, pKa prediction of organic acids and bases, Chapman and Hall, 1981. A. A. Katritzky, Physical methods in Heterocyclic Chemistry Vol. 1, Academic Press, 1963. […]
The DBU-treated iron deposit was immersed in the Ar-purged pH 2.6 solution, and the weightloss and corresponding pH measurements recorded are plotted in FIGS. 7A and 7B. […]

[6] = EQCM amine adsorption on iron in passivating borate buffer (pH 8.4); conditions: 15 mM amine
Source text: (§1) All the test solutions were buffered so that the effect of pH variation can be eliminated as much as possible. Thus, amine inhibition effectiveness is directly related to the strength of adsorption of the amine and its molecular structure, independent of pH effects. Here, borate buffer (pH 8.4) was used as passivating environment, whereas phosphate buffer (pH 5.7) was used as corrosive environment.
(§2) Plating of iron deposit (1 u thick) onto the polished gold crystal of the QCM electrode was accomplished from a 200 ml aqueous solution with the following composition:
(§3) For adsorption studies, the deposit was immersed in a passivating buffered solution (borate, pH 8.4, prepared as cited above) for 40 rain. for equilibration, after which 15 mM amine was added to the solution. The variation in frequency upon addition of the amine is quantitatively proportional to the amine adsorbed on the surface of the metal (Sauerbrey equation).
(§4) Deaerated test solutions (no dissolved O2) are prepared by purging the test solutions with argon for 2 hours before the tests and also during the tests.

[7] = EQCM amine inhibition of iron corrosion in corrosive phosphate buffer (pH 5.7); conditions: 15 mM amine
Source text: as §1, §2
(§5) For the corrosion inhibition studies, the deposit was immersed in a corrosive buffer solution (phosphate, pH 5.7) for 40 min. for equilibration, and then 15 mM amine was added to the solution.
as §4

[8] = Weight loss of AISI 1018 steel coupons exposed to amine containing steam at 250° F.; conditions: 250° F. steam, compared to plain steam
[9] = FTIR phase identification of iron oxides on steel samples exposed to amine containing steam; conditions: for hematite in samples exposed for four hours (FTIR): four hours exposure; for exposure time at which hematite formation was observed (FTIR): steam with 3 ppm DBU or 5 ppm morpholine
Source text: The main purpose of this analysis was to observe the relative delay in magnetite transformation to hematite.
Amorphous crystals will produce a variation in peak width, and a slight shift on IR values (Cornell R., and Schwertmann U., 1996). […] Oxyhydroxides absorption hands are as follows: α-FeOOH is known to have a deep well defined pair of sharp peaks at 890 and 795 cm^−1, γ-FeOOH presents an enunciated and deep peak at 1018 cm^−1. β-FeOOH was not expected to be present in the experiment conditions.
FIGS. 42 and 43 show the FTIR spectra of iron oxides formed on steel samples exposed to steam containing 3 ppm of DBU.
FIGS. 46 and 47 show the FTIR spectra of iron oxides formed on steel samples exposed to steam containing 3 ppm of DMA.

[10] = EQCM aniline adsorption on nickel in borate buffer (pH 8.4); conditions: borate buffer pH 8.4, aerated
Protocol: (§6) Plating of black nickel deposit (1 u thick) onto the polished gold crystal of the QCM electrode was accomplished from a 200 ml aqueous solution with the following composition:
as §3

[11] = EQCM aniline inhibition of nickel corrosion in phosphate buffer (pH 5.7); conditions: phosphate buffer pH 5.7, aerated
Protocol: as §6, §5

[12] = borate buffer pH 8.4, deaerated
[13] = phosphate buffer pH 5.7, aerated
[14] = phosphate buffer pH 5.7, deaerated

SMILES: COCCCN [3-methoxypropylamine]
- percent wt. loss [1]: 0%
- time when wt. loss commenced [1]: no wt. loss
- effectiveness as corrosion inhibitor in acidic solution ([2]; "open" pH 2.6 solution): not effective inhibitors
- % wt. loss in pH 2.6 solution ([2]; "open" pH 2.6 solution, over 60 minutes, probe failed after 60 minutes): 11.19% and 11.19 (probe failed %
- % wt. loss in pH 5.9 solution [3]: 0%

SMILES: NCCCCCO [5-amino-1-pentanol]
- percent wt. loss [1]: 4.106%
- time when wt. loss commenced [1]: 90 min
- % wt. loss in pH 5.9 solution [3]: 4.106%
- pKa ([4]; Table II, 23° C.): 10.46 (23° C.)

SMILES: C1CCC2=NCCCN2CC1 [DBU, 1,8-diazabicyclo[5.4.0]undec-7-ene]
- percent wt. loss [1]: 0%
- time when wt. loss commenced [1]: no wt. loss
- effectiveness as corrosion inhibitor in acidic solution ([2]; "open" pH 2.6 solution): good corrosion inhibitors
- % wt. loss in pH 2.6 solution ([2]; "open" pH 2.6 sulfate solution): 7.2%
- weightloss in Ar-purged pH 2.6 solution [5]: extensive weightless
- adsorption on iron surface ([6]; borate buffer pH 8.4, aerated): forms a monolayer initially and then multilayers; also recorded: Adsorption
- adsorption on iron surface [6, 12]: still can adsorb on the iron surface; also recorded: adsorption
- inhibition of iron corrosion [7, 13]: stops corrosion; also recorded: inhibition
- inhibition of iron corrosion [7, 14]: none of them can stop the iron corrosion; also recorded: no effect
- weight loss / corrosion rate of steel coupons in steam [8]: lowest corrosion rate
- hematite in samples exposed for four hours (FTIR) [9]: no hematite was detected
- exposure time at which hematite formation was observed (FTIR) [9]: 12 h
- % wt. loss in pH 5.9 solution [3]: 0%

SMILES: CCCCNCCCC [N,N-dibutylamine]
- percent wt. loss [1]: 9.3%
- time when wt. loss commenced [1]: 161 minutes, expt.
- adsorption on iron surface ([6]; borate buffer pH 8.4, aerated, listed as DBA): adsorbs on iron surface; also recorded: adsorption
- adsorption on iron surface ([6]; borate buffer pH 8.4, deaerated, listed as DBA): still can adsorb on the iron surface; also recorded: adsorption
- inhibition of iron corrosion ([7]; phosphate buffer pH 5.7, aerated, listed as DBA): oxide growth is noted after its adsorption; also recorded: inhibition
- inhibition of iron corrosion ([7]; phosphate buffer pH 5.7, deaerated, listed as DBA): none of them can stop the iron corrosion; also recorded: no effect
- % wt. loss in pH 5.9 solution [3]: 9.3%
- pKa at 25° C. ([4]; Table I and text): 11.25
- pKa at 25° C. ([4]; Table II): 11.25

SMILES: Nc1ccccc1 [aniline]
- adsorption on iron surface ([6]; borate buffer pH 8.4, aerated): does not have any adsorption
- adsorption on iron surface ([6]; borate buffer pH 8.4, aerated, listed as Aniline): no
- adsorption on iron surface [6, 12]: no
- inhibition of iron corrosion [7, 13]: no effect on inhibition
- adsorption on nickel surface [10]: adsorption
- inhibition of nickel corrosion [11]: inhibition

SMILES: CC(C)NC(C)C [diisopropylamine]
- percent wt. loss ([1]; listed as diisoproplyamine): 0%
- time when wt. loss commenced [1]: no wt. loss
- effectiveness as corrosion inhibitor in acidic solution ([2]; "open" pH 2.6 solution): not effective inhibitors
- % wt. loss in pH 2.6 solution ([2]; "open" pH 2.6 sulfate solution): 99.23%
- % wt. loss in pH 5.9 solution [3]: 0%

SMILES: CNC [dimethylamine]
- percent wt. loss [1]: 0.793%
- time when wt. loss commenced [1]: 30 min
- effectiveness as corrosion inhibitor in acidic solution ([2]; "open" pH 2.6 solution): not effective inhibitors
- % wt. loss in pH 2.6 solution ([2]; "open" pH 2.6 sulfate solution): 98.4%
- weight loss / corrosion rate of steel coupons in steam [8]: oxidation rates less favorable
- hematite in samples exposed for four hours (FTIR) [9]: no hematite was detected
- % wt. loss in pH 5.9 solution [3]: 0.793%

SMILES: C1COCCN1 [morpholine]
- percent wt. loss [1]: 8.87%
- time when wt. loss commenced [1]: 110 min
- adsorption on iron surface ([6]; borate buffer pH 8.4, aerated): only weak adsorption; also recorded: little
- adsorption on iron surface [6, 12]: still can adsorb on the iron surface; also recorded: little
- inhibition of iron corrosion [7, 13]: slow and weak
- inhibition of iron corrosion [7, 14]: none of them can stop the iron corrosion
- weight loss / corrosion rate of steel coupons in steam [8]: oxidation rates less favorable
- hematite in samples exposed for four hours (FTIR) [9]: some hematite presence
- exposure time at which hematite formation was observed (FTIR) [9]: started after two hours of exposure
- % wt. loss in pH 5.9 solution [3]: 8.87%

SMILES: C1CCNCC1 [piperidine]
- percent wt. loss [1]: 0.57%
- time when wt. loss commenced [1]: 350 min
- effectiveness as corrosion inhibitor in acidic solution ([2]; "open" pH 2.6 solution): good corrosion inhibitors
- % wt. loss in pH 2.6 solution ([2]; "open" pH 2.6 sulfate solution): 10.9%
- % wt. loss in pH 5.9 solution [3]: 0.57%

Reference: US20070187646A1, “Surface-active amines and methods of using same to impede corrosion” (priority 2006, published 2007)
